Here are results for 29 compounds from US12398120B2, “Substituted hydantoinamides as ADAMTS7 antagonists” (BAYER AKTIENGESELLSCHAFT, priority 2019, dated 2025).

Molecules are shown by their SMILES.

A word on the IC50: it is the concentration at which inhibition is half-maximal. A lower IC50 goes with greater potency.

This assay addresses ADAMTS4 (Homo sapiens (Human), UniProt O75173). Description: Selectivity assay for ADAMTS-7 modulators: ADAMTS4 (FRET substrate). It counts as biochemical. Particulars: ADAMTS4 (R&D 4307-AD) 50 nM, substrate Dabcyl-EEVKAKVQPY-Glu(Edans)-NH2 1 μM, 120 min, 32° C. In short, it runs like this: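 Activity read as rising fluorescence after a FRET substrate is cleaved by human ADAMTS4, with reactions started by substrate addition to wells holding compound or DMSO. Percent inhibition plotted against concentration gave IC50.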

Chain of ADAMTS4 (O75173 213-685): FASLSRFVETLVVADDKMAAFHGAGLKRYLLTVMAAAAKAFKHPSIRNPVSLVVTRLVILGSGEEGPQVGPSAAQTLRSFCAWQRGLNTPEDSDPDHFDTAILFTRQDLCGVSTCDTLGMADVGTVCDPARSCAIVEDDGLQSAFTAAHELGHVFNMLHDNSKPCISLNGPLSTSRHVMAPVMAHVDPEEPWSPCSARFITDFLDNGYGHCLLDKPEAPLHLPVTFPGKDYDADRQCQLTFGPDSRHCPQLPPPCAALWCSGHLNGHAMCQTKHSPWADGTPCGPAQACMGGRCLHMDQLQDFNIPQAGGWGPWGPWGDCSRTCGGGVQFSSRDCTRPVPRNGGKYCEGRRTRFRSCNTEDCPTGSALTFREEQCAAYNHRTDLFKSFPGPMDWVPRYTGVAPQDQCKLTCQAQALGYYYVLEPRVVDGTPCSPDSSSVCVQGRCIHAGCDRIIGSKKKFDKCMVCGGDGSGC

`Cc1scnc1C1(CNC(=O)c2cc(F)ccc2-c2ccc(C(F)(F)F)cc2)NC(=O)NC1=O` (racemic) [Example 165, Rac-4-Fluoro-N-{[4-(5-Methyl-1,3-Thiazol-4-Yl)-2,5-Dioxoimidazolidin-4-Yl]Methyl}-4′-(Trifluoromethyl)[Biphenyl]-2-Carboxamide] yielded an IC50 of 6.6 µM.

`Cn1cncc1C1(CNC(=O)c2ccccc2-c2ccc(C(F)(F)F)nc2)NC(=O)NC1=O` (racemic) [Example 285, Rac-N-{[4-(1-Methyl-1H-Imidazol-5-Yl)-2,5-Dioxoimidazolidin-4-Yl]Methyl}-2-[6-(Trifluoromethyl)Pyridin-3-Yl]Benzamide] gave an IC50 of 6.6 µM.

Regarding `O=C1NC(=O)[C@](CNC(=O)c2cc(F)ccc2-c2ccc(Cl)cc2)(C2CC2)N1` [Example 233, 4′-Chloro-N-{[(4R)-4-Cyclopropyl-2,5-Dioxoimidazolidin-4-Yl]Methyl}-4-Fluoro[1,1′-Biphenyl]-2-Carboxamide], the IC50 was determined as 6.5 µM.

`O=C1NC(=O)[C@](CNC(=O)c2ccccc2-c2ccc(C(F)(F)F)nc2)(C2CC2)N1` [Example 224, N-{[(4R)-4-Cyclopropyl-2,5-Dioxoimidazolidin-4-Yl]Methyl}-2-[6-(Trifluoromethyl)Pyridin-3-Yl]Benzamide] came in with an IC50 of 19 µM.

Compound `O=C1NC(=O)C(CNC(=O)c2cc(F)ccc2-c2ccc(C(F)(F)F)cc2)(c2ncsc2C(F)(F)F)N1` (stereo not drawn) [Example 266, Ent-N-({2,5-Dioxo-4-[5-(Trifluoromethyl)-1,3-Thiazol-4-Yl]Imidazolidin-4-Yl}Methyl)-4-Fluoro-4′-(Trifluoromethyl)[Biphenyl]-2-Carboxamide] had an IC50 of 10 µM.

As to `Cc1scnc1C1(CNC(=O)c2cc(F)c(F)cc2-c2ccc(C(F)(F)F)cc2)NC(=O)NC1=O` (single isomer, unassigned; ent-4) [Example 17, Ent-4,5-Difluoro-N-{[4-(5-Methyl-1,3-Thiazol-4-Yl)-2,5-Dioxoimidazolidin-4-Yl]Methyl}-4′-(Trifluoromethyl)[Biphenyl]-2-Carboxamide], the IC50 was determined as 7.1 µM.

Compound `O=C1NC(=O)[C@](CNC(=O)c2ccc(C(F)(F)F)cc2-c2ccc(Cl)cc2)(C2CC2)N1` [Example 89, 4′-Chloro-N-{[(4R)-4-Cyclopropyl-2,5-Dioxoimidazolidin-4-Yl]Methyl}-5-(Trifluoromethyl)[1,1′-Biphenyl]-2-Carboxamide] showed an IC50 of 7.6 µM.

`Cc1ncsc1C1(CNC(=O)c2ccccc2-c2ccc(C(F)(F)F)nc2)NC(=O)NC1=O` (stereo not drawn) [Example 37, Ent-N-{[4-(4-Methyl-1,3-Thiazol-5-Yl)-2,5-Dioxoimidazolidin-4-Yl]Methyl}-2-[6-(Trifluoromethyl)Pyridin-3-Yl]Benzamide] gave an IC50 of 8.7 µM.

As to `O=C1NC(=O)[C@](CNC(=O)c2ccccc2-c2ccc(C3CC3(F)F)cc2)(C2CC2)N1` (stereo partly drawn) [Example 111, N-{[(4R)-4-Cyclopropyl-2,5-Dioxoimidazolidin-4-Yl]Methyl}-4′-(2,2-Difluorocyclopropyl)[Biphenyl]-2-Carboxamide], the IC50 was 7.9 µM.

The compound `Cc1scnc1C1(CNC(=O)c2ccccc2-c2ccc(Cl)cc2)NC(=O)NC1=O` (racemic) [Example 171, Rac-4′-Chloro-N-{[4-(5-Methyl-1,3-Thiazol-4-Yl)-2,5-Dioxoimidazolidin-4-Yl]Methyl}[Biphenyl]-2-Carboxamide] displayed an IC50 of 6.9 µM.

`Cn1nccc1C1(CNC(=O)c2cc(F)c(F)cc2-c2ccc(C(F)(F)F)cc2)NC(=O)NC1=O` (single isomer, unassigned; ent-4) [Example 192, Ent-4,5-Difluoro-N-{[4-(1-Methyl-1H-Pyrazol-5-Yl)-2,5-Dioxoimidazolidin-4-Yl]Methyl}-4′-(Trifluoromethyl)[Biphenyl]-2-Carboxamide] returned an IC50 of 7.13 µM.

As for `O=C1NC(=O)C(CNC(=O)c2ccccc2-c2ccc(C(F)(F)F)nc2)(c2ccnn2C2CC2)N1` (stereo not drawn) [Example 66, Ent-N-{[4-(1-Cyclopropyl-1H-Pyrazol-5-Yl)-2,5-Dioxoimidazolidin-4-Yl]Methyl}-2-[6-(Trifluoromethyl)Pyridin-3-Yl]Benzamide], the IC50 was found to be 8.2 µM.

For `Cn1nccc1C1(CNC(=O)c2ccc(Cl)cc2-c2ccc(Cl)cc2)NC(=O)NC1=O` (single isomer, unassigned; ent-4) [Example 193, Ent-4′,5-Dichloro-N-{[4-(1-Methyl-1H-Pyrazol-5-Yl)-2,5-Dioxoimidazolidin-4-Yl]Methyl}[Biphenyl]-2-Carboxamide], the IC50 came to 1.57 µM.

As for `Cc1ccc(-c2ccc(F)cc2C(=O)NC[C@@]2(C3CC3)NC(=O)NC2=O)cc1` [Example 219, N-{[(4R)-4-Cyclopropyl-2,5-Dioxoimidazolidin-4-Yl]Methyl}-4-Fluoro-4-Methyl[Biphenyl]-2-Carboxamide], the IC50 came to 2.8 µM.

The compound `Cc1ccc(-c2cccc(F)c2C(=O)NC[C@@]2(C3CC3)NC(=O)NC2=O)cc1` [Example 229, N-{[(4R)-4-Cyclopropyl-2,5-Dioxoimidazolidin-4-Yl]Methyl}-3-Fluoro-4′-Methyl[1,1′-Biphenyl]-2-Carboxamide] came in with an IC50 of 20 µM.

`O=C1NC(=O)C(CNC(=O)c2ccc(F)c(F)c2-c2ccc(C(F)(F)F)cc2)(C23CC(F)(C2)C3)N1` (racemic) [Example 295, Rac-5,6-Difluoro-N-{[4-(3-Fluorobicyclo[1.1.1]Pentan-1-Yl)-2,5-Dioxoimidazolidin-4-Yl]Methyl}-4′-(Trifluoromethyl)[Biphenyl]-2-Carboxamide] had an IC50 of over 50 µM.

The compound `CC(C)C1(CNC(=O)c2cccc(F)c2-c2ccc(C(F)(F)F)cc2)NC(=O)NC1=O` (single isomer, unassigned; ent-6) [Example 210, Ent-6-Fluoro-N-[(4-Isopropyl-2,5-Dioxoimidazolidin-4-Yl)Methyl]-4′-(Trifluoromethyl)[Biphenyl]-2-Carboxamide] returned a concentration for half-maximal inhibition (IC50) of 23 µM.

The compound `Cn1nccc1C1(CNC(=O)c2c(Cl)cccc2-c2ccc(Cl)cc2)NC(=O)NC1=O` (single isomer, unassigned; ent-3) [Example 189, Ent-3,4′-Dichloro-N-{[4-(1-Methyl-1H-Pyrazol-5-Yl)-2,5-Dioxoimidazolidin-4-Yl]Methyl}[Biphenyl]-2-Carboxamide] returned an IC50 of 3.65 µM.

Compound `CC(C)c1ccc(-c2ccccc2C(=O)NC[C@@]2(C3CC3)NC(=O)NC2=O)cc1` [Example 118, N-{[(4R)-4-Cyclopropyl-2,5-Dioxoimidazolidin-4-Yl]Methyl}-4′-Isopropyl[Biphenyl]-2-Carboxamide] registered an IC50 of 7.6 µM.

In the case of `O=C1NC(=O)C(CNC(=O)c2ccc(F)cc2-c2ccc(C(F)(F)F)cc2)(C2(F)CC2)N1` (single isomer, unassigned; ent-5) [Example 253, Ent-5-Fluoro-N-{[4-(1-Fluorocyclopropyl)-2,5-Dioxoimidazolidin-4-Yl]Methyl}-4′-(Trifluoromethyl)[Biphenyl]-2-Carboxamide], the IC50 turned out to be 11 µM.

Consider `CC(C)C1(CNC(=O)c2cc(F)c(F)cc2-c2ccc(C(F)(F)F)cc2)NC(=O)NC1=O` (single isomer, unassigned; ent-4) [Example 213, Ent-4,5-Difluoro-N-[(4-Isopropyl-2,5-Dioxoimidazolidin-4-Yl)Methyl]-4′-(Trifluoromethyl)[Biphenyl]-2-Carboxamide], for which inhibition was half-maximal at 30 µM (IC50).

On to `O=C1NC(=O)C(CNC(=O)c2ccccc2-c2ccc(C(F)(F)F)nc2)(C2CCOCC2)N1` (racemic) [Example 36, Rac-N-{[2,5-Dioxo-4-(Tetrahydro-2H-Pyran-4-Yl)Imidazolidin-4-Yl]Methyl}-2-[6-(Trifluoromethyl)Pyridin-3-Yl]Benzamide], for which the IC50 is over 50 µM.

With `Cc1scnc1C1(CNC(=O)c2ccccc2-c2ccc(C(F)(F)F)nc2)NC(=O)NC1=O` (stereo not drawn) [Example 173, Ent-N-{[4-(5-Methyl-1,3-Thiazol-4-Yl)-2,5-Dioxoimidazolidin-4-Yl]Methyl}-2-[6-(Trifluoromethyl)Pyridin-3-Yl]Benzamide], the IC50 was determined as 7.9 µM.

For the compound `O=C1NC(=O)[C@](CNC(=O)c2cc(F)ccc2-c2ccc(C3CC3(F)F)cc2)(C2CC2)N1` (stereo partly drawn) [Example 140, N-{[(4R)-4-Cyclopropyl-2,5-Dioxoimidazolidin-4-Yl]Methyl}-4′-(2,2-Difluorocyclopropyl)-4-Fluoro[1,1′-Biphenyl]-2-Carboxamide], the IC50 was 11 µM.

In turn, `Cc1nocc1C1(CNC(=O)c2ccccc2-c2ccc(C(F)(F)F)nc2)NC(=O)NC1=O` (racemic) [Example 41, Rac-N-{[4-(3-Methyl-1,2-Oxazol-4-Yl)-2,5-Dioxoimidazolidin-4-Yl]Methyl}-2-[6-(Trifluoromethyl)Pyridin-3-Yl]Benzamide] yielded an IC50 of 30 µM.

For the compound `Cc1nscc1C1(CNC(=O)c2ccccc2-c2ccc(C(F)(F)F)nc2)NC(=O)NC1=O` (racemic) [Example 49, Rac-N-{[4-(3-Methyl-1,2-Thiazol-4-Yl)-2,5-Dioxoimidazolidin-4-Yl]Methyl}-2-[6-(Trifluoromethyl)Pyridin-3-Yl]Benzamide], 22 µM corresponded to half-maximal inhibition (IC50).

`O=C1NC(=O)C(CNC(=O)c2ccc(F)cc2-c2ccc(Cl)cc2)(c2ncccc2C(F)(F)F)N1` (racemic) [Example 241, Rac-4′-Chloro-N-({2,5-Dioxo-4-[3-(Trifluoromethyl)Pyridin-2-Yl]Imidazolidin-4-Yl}Methyl)-5-Fluoro[Biphenyl]-2-Carboxamide] had an IC50 of 41 µM.

In the case of `Cn1ccnc1C1(CNC(=O)c2c(F)cccc2-c2ccc(C(F)(F)F)cc2)NC(=O)NC1=O` (single isomer, unassigned; ent-3) [Example 159, Ent-3-Fluoro-N-{[4-(1-Methyl-1H-Imidazol-2-Yl)-2,5-Dioxoimidazolidin-4-Yl]Methyl}-4′-(Trifluoromethyl)[Biphenyl]-2-Carboxamide], the IC50 worked out at 3.75 µM.

`Cc1nn(C)cc1C1(CNC(=O)c2ccccc2-c2ccc(C(F)(F)F)nc2)NC(=O)NC1=O` (racemic) [Example 55, Rac-N-{[4-(1,3-Dimethyl-1H-Pyrazol-4-Yl)-2,5-Dioxoimidazolidin-4-Yl]Methyl}-2-[6-(Trifluoromethyl)Pyridin-3-Yl]Benzamide] registered an IC50 of 30 µM.
